Target: T1, AKT1-E17K (Homo sapiens, UniProt P31749, E17K)
T1 construct: host or cells: HEK-293 (ATCC CRL-1573)
Assay: NanoBRET Target Engagement (TE) Assay
Type: cell-based
Conditions: full length AKT E17K NanoLuc fusion in transfected HEK-293 cells; 2 hr equilibration with tracer and compound
From the text: NanoBRET is a highly specific and validated cell-based technique for assessing target engagement (Vasta et al., 2018, Cell Chem Biol. 25(2):206-214). The NanoBRET™ Target Engagement (TE) Intracellular Kinase Assays are based on the NanoBRET™ System (Promega Corporation), an energy transfer technique designed to measure molecular proximity in living cells. The NanoBRET™ TE Assays measure the apparent affinity of test compounds by competitive displacement of the NanoBRET™ tracer compound, which is a cell permeable molecule engineered to be reversibly bound to a NanoLuc® luciferase-kinase fusion expressed in cells. For compound screening, when a test compound binds to the selected kinase, the BRET signal is attenuated. For kinase inhibitors in particular, intracellular target selectivity is fundamental to pharmacological mechanism and allows the proteins of interest to be in the correct cellular confirmation. Although non-cell-based techniques have been developed to measure kinase binding or enzymatic inhibition with accuracy and precision, such approaches can fail to accurately predict engagement of the full-length target protein in the more complex and biologically relevant cellular context (Knight and Shokat, 2005, Chem. Biol. 12, 621-637; Smyth and Collins, 2009, J. Chem. Biol. 2, 131-151). […] Briefly, HEK-293 cells (ATCC Cat #CRL-1573) were used for transfection purposes using FuGENE HD Transfection Reagent (Promega Cat #E2311). All cells were evaluated for viability prior to transfection and optimization of the transfection was done prior to experimentation. Greater than 95% viability was used for all experiments. Following transfection, cells were washed and resuspended in Opti-MEM. NanoBRET assays were performed in white, 384-well plates (Corning) at a density of 2×10^5 cells/well. All example compounds were prepared as concentrated stock solutions in DMSO (Sigma-Aldrich). Compounds are dissolved in DMSO to make 10 mM stock solution. Example compounds were transferred as 40 μL of 10 mM stock solution to a 384 pp-plate (LABCYTE, PP-0200) and diluted in 3-fold, 10-point dilution via transferring […] by Apricot liquid handler. A Labcyte ECHO 550 compound dispenser was used to facilitate compound transfer directly to cells. Cells were equilibrated for 2 hr with energy transfer probes and example compound prior to BRET measurements. The AKTE17K (Promega Cat #NV2421) as well as specific probe (NanoBRET tracer, Promega Cat #N264B) was prepared at a concentration of 20× in tracer dilution buffer (12.5 mM HEPES, 31.25% PEG-400, pH 7.5). For target engagement analysis, the energy transfer probes were added to the cells at concentrations optimized for the target in question (AKT E17K). Following compound incubation, NanoBRET NanoGlo Substrate (Promega Cat #N157D) and Extracellular Nanoluc Inhibitor (Promega Cat #N235C) was added according to the manufacturer's recommended protocol, and luminescence was measured on Envision Reader (Perkin Elmer) Multimode Luminometer equipped with 450 nmBPfilter (donor) and 600 nmLPfilter (acceptor), using 0.5 s integration time. Milli-BRET units (mBU) are calculated by multiplying the raw BRET values by 1000. Apparent tracer affinity values (EC50) were determined using the sigmoidal dose-response (variable slope). Competitive displacement data were then plotted and data were fit to determine the EC50 value for each example compound.

T1 sequence (P31749 whole entry E17K): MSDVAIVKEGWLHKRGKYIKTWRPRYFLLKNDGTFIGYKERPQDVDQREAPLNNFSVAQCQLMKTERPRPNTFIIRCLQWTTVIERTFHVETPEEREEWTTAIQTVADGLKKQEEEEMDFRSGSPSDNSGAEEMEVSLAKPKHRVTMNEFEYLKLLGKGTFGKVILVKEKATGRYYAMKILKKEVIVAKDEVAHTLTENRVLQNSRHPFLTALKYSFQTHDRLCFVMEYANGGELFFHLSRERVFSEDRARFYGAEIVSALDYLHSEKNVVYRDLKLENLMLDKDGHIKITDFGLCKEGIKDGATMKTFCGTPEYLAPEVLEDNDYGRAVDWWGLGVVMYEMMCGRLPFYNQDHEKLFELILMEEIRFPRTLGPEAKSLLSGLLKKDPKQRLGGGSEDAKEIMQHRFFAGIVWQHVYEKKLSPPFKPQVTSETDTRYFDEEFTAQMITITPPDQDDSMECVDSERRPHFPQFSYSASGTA

Row | IC50 [µM] | Compound
1 | > 0.6 | C[C@@H]1CN(Cc2ccc(-n3c(-c4cccnc4N)nc4ccc(-c5ccccc5)nc43)cc2)C[C@@H](C)N1C#N [Example 26, (2R,6R)-4-(4-(2-(2-Aminopyridin-3-yl)-5-phenyl-3H-imidazo[4,5-b]pyridin-3-yl)benzyl)-2,6-dimethylpiperazine-1-carbonitrile]
2 | > 0.6 | N#CNC1CCN(Cc2ccc(-n3c(-c4cccnc4N)nc4cccnc43)cc2)CC1 [Example 1, N-(1-(4-(2-(2-Aminopyridin-3-yl)-3H-imidazo[4,5-b]pyridin-3-yl)benzyl)piperidin-4-yl)cyanamide]
3 | 0.06 to 0.6 | N#CN1C[C@@H]2C[C@H]1CN2Cc1ccc(-n2c(-c3cccnc3N)nc3ccc(-c4ccccc4)nc32)cc1 [Example 34, (1S,4S)-5-(4-(2-(2-Aminopyridin-3-yl)-5-phenyl-3H-imidazo[4,5-b]pyridin-3-yl)benzyl)-2,5-diazabicyclo[2.2.1]heptane-2-carbonitrile]
4 | 0.015 to 0.06 | N#CN1CCC2(CC1)CCN(Cc1ccc(-n3c(-c4cccnc4N)nc4ccc(-c5ccccc5)nc43)cc1)CC2 [Example 17, 9-(4-(2-(2-Aminopyridin-3-yl)-5-phenyl-3H-imidazo[4,5-b]pyridin-3-yl)benzyl)-3,9-diazaspiro[5.5]undecane-3-carbonitrile]
5 | 0.06 to 0.6 | N#CN1CCN(Cc2ccc(-n3c(-c4cccnc4N)nc4ccc(-c5ccccc5)nc43)cc2)CC12CC2 [Example 33, 7-(4-(2-(2-Aminopyridin-3-yl)-5-phenyl-3H-imidazo[4,5-b]pyridin-3-yl)benzyl)-4,7-diazaspiro[2.5]octane-4-carbonitrile]
6 | < 0.015 | N#CN1CC[C@@]2(CCN(Cc3ccc(-n4c(-c5cccnc5N)nc5ccc(-c6ccccc6)nc54)cc3)C2)C1 [Example 23, (R)-7-(4-(2-(2-Aminopyridin-3-yl)-5-phenyl-3H-imidazo[4,5-b]pyridin-3-yl)benzyl)-2,7-diazaspiro[4.4]nonane-2-carbonitrile]
7 | < 0.015 | N#CN1CCC2(CCN(Cc3ccc(-n4c(-c5cccnc5N)nc5ccc(-c6ccccc6)nc54)cc3)CC2)C1 [Example 16, 8-(4-(2-(2-Aminopyridin-3-yl)-5-phenyl-3H-imidazo[4,5-b]pyridin-3-yl)benzyl)-2,8-diazaspiro[4.5]decane-2-carbonitrile]
8 | 0.015 to 0.06 | N#CNC1CCCN(Cc2ccc(-n3c(-c4cccnc4N)nc4ccc(-c5ccccc5)nc43)cc2)CC1 (stereo not drawn) [Example 30, N-(1-(4-(2-(2-Aminopyridin-3-yl)-5-phenyl-3H-imidazo[4,5-b]pyridin-3-yl)benzyl)azepan-4-yl)cyanamide]

The remaining lines, values behind:

Row | Compound | IC50 [µM]
9 | N#CN1CC[C@]2(CCN(Cc3ccc(-n4c(-c5cccnc5N)nc5ccc(-c6ccccc6)nc54)cc3)C2)C1 [Example 40, (S)-7-(4-(2-(2-Aminopyridin-3-yl)-5-phenyl-3H-imidazo[4,5-b]pyridin-3-yl)benzyl)-2,7-diazaspiro[4.4]nonane-2-carbonitrile] | < 0.015
10 | N#CN1CC2CCC1CN2Cc1ccc(-n2c(-c3cccnc3N)nc3ccc(-c4ccccc4)nc32)cc1 (stereo not drawn) [Example 37, 5-(4-(2-(2-Aminopyridin-3-yl)-5-phenyl-3H-imidazo[4,5-b]pyridin-3-yl)benzyl)-2,5-diazabicyclo[2.2.2]octane-2-carbonitrile] | 0.06 to 0.6
11 | N#CNC1CCC2(CC1)CCN(Cc1ccc(-n3c(-c4cccnc4N)nc4ccc(-c5ccccc5)nc43)cc1)C2 (stereo not drawn) [Example 8, N-(2-(4-(2-(2-Aminopyridin-3-yl)-5-phenyl-3H-imidazo[4,5-b]pyridin-3-yl)benzyl)-2-azaspiro[4.5]decan-8-yl)cyanamide] | 0.06 to 0.6
12 | N#CN[C@H]1CCCN(Cc2ccc(-n3c(-c4cccnc4N)nc4ccc(-c5ccccc5)nc43)cc2)C1 [Example 6, (S)—N-(1-(4-(2-(2-Aminopyridin-3-yl)-5-phenyl-3H-imidazo[4,5-b]pyridin-3-yl)benzyl)piperidin-3-yl)cyanamide] | 0.015 to 0.06
13 | N#CN1CCCC2(C1)CN(Cc1ccc(-n3c(-c4cccnc4N)nc4ccc(-c5ccccc5)nc43)cc1)C2 [Example 39, 2-(4-(2-(2-Aminopyridin-3-yl)-5-phenyl-3H-imidazo[4,5-b]pyridin-3-yl)benzyl)-2,6-diazaspiro[3.5]nonane-6-carbonitrile] | 0.06 to 0.6
14 | CC(=O)Nc1cccc(-c2ccc3nc(-c4cccnc4N)n(-c4ccc(CN5CCC(NC#N)CC5)cc4)c3n2)c1 [Example 4, N-(3-(2-(2-Aminopyridin-3-yl)-3-(4-((4-cyanamidopiperidin-1-yl)methyl)phenyl)-3H-imidazo[4,5-b]pyridin-5-yl)phenyl)acetamide] | < 0.015
15 | N#CN1CC2CCC(C1)N2Cc1ccc(-n2c(-c3cccnc3N)nc3ccc(-c4ccccc4)nc32)cc1 [Example 29, 8-(4-(2-(2-Aminopyridin-3-yl)-5-phenyl-3H-imidazo[4,5-b]pyridin-3-yl)benzyl)-3,8-diazabicyclo[3.2.1]octane-3-carbonitrile] | 0.015 to 0.06
16 | N#CN1CCC2(CC1)CN(Cc1ccc(-n3c(-c4cccnc4N)nc4ccc(-c5ccccc5)nc43)cc1)C2 [Example 22, 2-(4-(2-(2-Aminopyridin-3-yl)-5-phenyl-3H-imidazo[4,5-b]pyridin-3-yl)benzyl)-2,7-diazaspiro[3.5]nonane-7-carbonitrile] | 0.06 to 0.6
17 | C[C@@H]1CN(Cc2ccc(-n3c(-c4cccnc4N)nc4ccc(-c5ccccc5)nc43)cc2)C[C@H](C)N1C#N [Example 36, (2S,6R)-4-(4-(2-(2-Aminopyridin-3-yl)-5-phenyl-3H-imidazo[4,5-b]pyridin-3-yl)benzyl)-2,6-dimethylpiperazine-1-carbonitrile] | > 0.6
18 | N#CN1CC2(CCN(Cc3ccc(-n4c(-c5cccnc5N)nc5ccc(-c6ccccc6)nc54)cc3)CC2)C1 [Example 15, 7-(4-(2-(2-Aminopyridin-3-yl)-5-phenyl-3H-imidazo[4,5-b]pyridin-3-yl)benzyl)-2,7-diazaspiro[3.5]nonane-2-carbonitrile] | 0.015 to 0.06

From patent publication US20260193274A1, “AKT1 MODULATORS” (Alterome Therapeutics, Inc., priority 2022, published 2026)
